Results published in patent US5703097A, “5-pyrrolyl-2-pyridylmethylsulfinyl benzimidazole derivatives” (priority 1994, dated 1997).
Where a name gives a salt, the structure may show the parent alone. One block for each compound: values may come before it.

What was measured:
[1] = biological target: T1, H^+ /K^+ -ATPase (Oryctolagus cuniculus, UniProt P27112); test: Inhibition of enzyme activity: in vitro inhibition of H+/K+-ATPase (TEST 1); type: biochemical, rabbit; conditions: 5 min pre-incubation at 37° C., 4 mM ATP
T1 construct: The gastric mucous membrane was removed from a rabbit; from tissue; host or cells: rabbit gastric mucosa, microsomal fraction (77,000 g)
T1 sequence (P27112 2-1035 limits assumed): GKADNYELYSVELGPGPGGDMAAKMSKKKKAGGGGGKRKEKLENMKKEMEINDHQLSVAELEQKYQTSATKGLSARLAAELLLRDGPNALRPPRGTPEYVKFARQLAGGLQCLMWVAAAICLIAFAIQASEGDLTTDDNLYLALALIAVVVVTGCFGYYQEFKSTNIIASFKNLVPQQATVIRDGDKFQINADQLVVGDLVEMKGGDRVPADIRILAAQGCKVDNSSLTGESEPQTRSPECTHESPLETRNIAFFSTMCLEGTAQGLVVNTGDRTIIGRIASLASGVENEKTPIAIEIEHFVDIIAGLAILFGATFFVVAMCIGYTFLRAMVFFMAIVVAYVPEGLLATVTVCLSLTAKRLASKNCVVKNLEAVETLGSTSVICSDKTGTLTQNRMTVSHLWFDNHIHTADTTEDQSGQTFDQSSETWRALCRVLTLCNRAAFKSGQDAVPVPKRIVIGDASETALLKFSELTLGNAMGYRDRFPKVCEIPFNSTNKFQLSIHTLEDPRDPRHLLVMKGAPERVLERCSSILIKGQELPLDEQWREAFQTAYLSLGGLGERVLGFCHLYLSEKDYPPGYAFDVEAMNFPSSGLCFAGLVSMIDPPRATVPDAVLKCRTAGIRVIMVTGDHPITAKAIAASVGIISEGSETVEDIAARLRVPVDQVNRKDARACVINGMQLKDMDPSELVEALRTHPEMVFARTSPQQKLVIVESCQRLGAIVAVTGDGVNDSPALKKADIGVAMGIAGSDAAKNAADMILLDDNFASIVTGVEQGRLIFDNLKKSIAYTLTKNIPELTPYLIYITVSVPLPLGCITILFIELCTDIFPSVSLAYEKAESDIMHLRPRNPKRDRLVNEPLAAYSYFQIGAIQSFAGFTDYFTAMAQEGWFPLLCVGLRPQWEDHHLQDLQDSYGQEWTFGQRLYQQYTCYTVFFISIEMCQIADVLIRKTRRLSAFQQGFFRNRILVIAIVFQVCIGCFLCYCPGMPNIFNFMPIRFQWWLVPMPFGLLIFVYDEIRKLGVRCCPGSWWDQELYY
T1 sequence (P18597 whole entry partner): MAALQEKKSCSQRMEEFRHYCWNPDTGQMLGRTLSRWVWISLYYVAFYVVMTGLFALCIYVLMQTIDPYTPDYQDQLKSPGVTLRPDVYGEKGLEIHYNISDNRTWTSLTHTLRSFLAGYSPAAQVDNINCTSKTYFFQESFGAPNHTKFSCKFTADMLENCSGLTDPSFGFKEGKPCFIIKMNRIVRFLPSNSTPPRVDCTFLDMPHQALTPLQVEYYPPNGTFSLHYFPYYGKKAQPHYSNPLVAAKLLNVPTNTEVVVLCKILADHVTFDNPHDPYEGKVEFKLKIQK
Procedure: In this test, omeprazole [5-methoxy-2-[[(4-methoxy-3,5-dimethyl-2-pyridinyl)methyl]sulfinyl]-1H-benzimidazole] was used as the control compound.
The gastric mucous membrane was removed from a rabbit and then centrifuged with 77,000 g using a ultra-centrifuge to separate the microsomal fraction which was used as the source of H^+ /K^+ -ATPase enzyme for this test. 60 μg of H^+ /K^+ -ATPase was pre-incubated with the sample (the compound according to the present invention) for 5 minutes at 37° C. and then 4 mM ATP as the substrate and 4 mM Mg^++, 20 mM K^+ as the cofactor were added thereto. Then, the amount of inorganic phosphorus thus produced was determined using a spectrophotometer at 660 nm and converted into the amount of protein. […]

[2] = test system: gastric acidity; test: Effect on inhibition of acidity (total acid output), in vivo, Shay method (TEST 2); set-up: species or system rat (SD male rats); conditions: for Volume (acidity, total acid output) / Inhibition rate, acidity: into duodenum, 5 hours; for Volume (acidity, total acid output): pylorus-ligated rats; for Inhibition rate, acidity: vs normal group
Procedure: (§1) The specific test methods are as follows.
(§2) SD male rats (200±20 g) were fasted for 24 hours, except for water, and then anesthesized with ether. The abdomen of rats was incised and then the pylorus was ligated. The test compounds were suspended or dissolved in 5% CMC (carboxymethylcellulose) and injected into duodenum. After the abdomen was sutured, the rats were allowed to stand for 5 hours and then sacrificed with ether. The stomach was removed from rats and the gastric juices were collected. The gastric juice was centrifuged with 10,000 xg for 10 minutes at 4° C. to remove the precipitate. The amount of gastric juice and acidity were determined using pH 7.0 end point assay with 0.02N NaOH and then the total acid output was calculated.

[3] = test system: gastric juice secretion; test: Effect on inhibition of gastric juice secretion, in vivo, Shay method (TEST 2); set-up: species or system rat (SD male rats); conditions: for Volume of gastric juice / Inhibition rate, gastric juice secretion: into duodenum, 5 hours; for Volume of gastric juice: pylorus-ligated rats; for Inhibition rate, gastric juice secretion: vs normal group
Procedure: as §1, §2

[4] = in words, even at a lower dose than that of the known anti-ulcer agent

Structure (SMILES): COc1ccnc(CSc2nc3cc(-n4cccc4)ccc3[nH]2)c1C [Compound 1, 2-[[(4-methoxy-3-methyl)-2-pyridinyl]methylthio]-5-(1H-pyrrol-1-yl)-1H-benzimidazole]
- IC50 [1]: > 400 µM

Structure (SMILES): COc1ccnc(CS(=O)(=O)c2nc3cc(-n4cccc4)ccc3[nH]2)c1C [Compound 3]
- IC50 [1]: > 400 µM

Structure (SMILES): COc1c(C)cnc(C[S+]([O-])c2nc3cc(-n4cccc4)ccc3[nH]2)c1C (stereo not shown) [Compound 4]
- IC50 [1]: 210 µM

Structure (SMILES): Cc1c(OCC(F)(F)F)ccnc1C[S+]([O-])c1nc2cc(-n3cccc3)ccc2[nH]1 (stereo not shown) [Compound 13, 2-[[(4-(2,2,2-trifluoroethoxy)-3-methyl)-2-pyridinyl]methylsulfinyl]-5-(1H-pyrrol-1-yl)-1H-benzimidazole]
- IC50 [1]: 100 µM

Structure (SMILES): Cc1c(OCC(F)(F)C(F)(F)F)ccnc1C[S+]([O-])c1nc2cc(-n3cccc3)ccc2[nH]1 (stereo not shown) [Compound 14, 2-[[(4-(2,2,3,3,3-pentafluoropropoxy)-3-methyl)-2-pyridinyl]methylsulfinyl]-5-(1H-pyrrol-1-yl)-1H-benzimidazole]
- IC50 [1]: > 400 µM

Structure (SMILES): COc1ccnc(C[S+]([O-])c2nc3cc(-n4c(C)ccc4C)ccc3[nH]2)c1C (stereo not shown) [Compound 15, 2-[[(4-methoxy-3-methyl)-2-pyridinyl]methylsulfinyl]-5-(1H-2,5-dimethylpyrrol-1-yl)-1H-benzimidazole]
- IC50 [1]: 33 µM

Structure (SMILES): COc1ccnc(C[S+]([O-])c2nc3cc(-n4cccc4)ccc3[nH]2)c1C (stereo not shown) [Compound 16, 2-[[(4-methoxy-3-methyl)-2-pyridinyl]methylsulfinyl]-5-(1H-pyrrol-1-yl)-1H-benzimidazole sodium salt]
- Volume (acidity, total acid output) ([2]; 3 mg/kg, sodium salt): 22.59 ± 2.88 μ Eq/hr
- Inhibition rate, acidity ([2]; 3 mg/kg, sodium salt): 70.05%
- Volume (acidity, total acid output) ([2]; 10 mg/kg, sodium salt): 10.99 ± 3.05 μ Eq/hr
- Inhibition rate, acidity ([2]; 10 mg/kg, sodium salt): 85.43%
- Volume (acidity, total acid output) ([2]; 30 mg/kg, sodium salt): 1.98 ± 1.21 μ Eq/hr
- Inhibition rate, acidity ([2]; 30 mg/kg, sodium salt): 97.37%
- effect for lowering acidity ([2]; in words): good effects
- Volume of gastric juice ([3]; 3 mg/kg, sodium salt): 2.05 ± 0.16 ml/100 g BW
- Inhibition rate, gastric juice secretion ([3]; 3 mg/kg, sodium salt): 41.29%
- Volume of gastric juice ([3]; 10 mg/kg, sodium salt): 1.35 ± 0.12 ml/100 g BW
- Inhibition rate, gastric juice secretion ([3]; 10 mg/kg, sodium salt): 61.51%
- Volume of gastric juice ([3]; 30 mg/kg, sodium salt): 1.17 ± 0.20 ml/100 g BW
- Inhibition rate, gastric juice secretion ([3]; 30 mg/kg, sodium salt): 66.61%
- effect for inhibition of gastric acid secretion ([3]; in words): good effects
- IC50 [1]: 28 µM

Structure (SMILES): COc1ccnc(C[S+]([O-])c2nc3cc(-n4cccc4)ccc3[nH]2)c1C (stereo not shown) [Compound 17]
- Volume (acidity, total acid output) ([2]; 3 mg/kg): 14.94 ± 3.02 μ Eq/hr
- Inhibition rate, acidity ([2]; 3 mg/kg): 75.02%
- Volume (acidity, total acid output) ([2]; 10 mg/kg): 8.50 ± 1.30 μ Eq/hr
- Inhibition rate, acidity ([2]; 10 mg/kg): 85.79%
- Volume (acidity, total acid output) ([2]; 30 mg/kg): 6.06 ± 3.05 μ Eq/hr
- Inhibition rate, acidity ([2]; 30 mg/kg): 89.87%
- effect for lowering acidity ([2]; in words): good effects
- Volume of gastric juice ([3]; 3 mg/kg): 1.31 ± 0.18 ml/100 g BW
- Inhibition rate, gastric juice secretion ([3]; 3 mg/kg): 54.79%
- Volume of gastric juice ([3]; 10 mg/kg): 1.23 ± 0.20 ml/100 g BW
- Inhibition rate, gastric juice secretion ([3]; 10 mg/kg): 57.55%
- Volume of gastric juice ([3]; 30 mg/kg): 1.15 ± 0.15 ml/100 g BW
- Inhibition rate, gastric juice secretion ([3]; 30 mg/kg): 60.38%
- effect for inhibition of gastric acid secretion ([3]; in words): good effects
- IC50 [1]: 13 µM

Structure (SMILES): COc1ccc2[nH]c([S+]([O-])Cc3ncc(C)c(OC)c3C)nc2c1 (stereo not shown) [Omeprazole, 5-methoxy-2-[[(4-methoxy-3,5-dimethyl-2-pyridinyl)methyl]sulfinyl]-1H-benzimidazole, reference compound]
- Volume (acidity, total acid output) ([2]; 10 mg/kg): 12.46 ± 1.85 μ Eq/hr
- Inhibition rate, acidity ([2]; 10 mg/kg): 84.00%
- Volume of gastric juice ([3]; 10 mg/kg): 1.68 ± 0.30 ml/100 g BW
- Inhibition rate, gastric juice secretion ([3]; 10 mg/kg): 54.49%
- IC50 [1]: ~160 µM

More lines, main results first:

- IC50 [1]: 32 µM
Structure (SMILES): COc1cc(C[S+]([O-])c2nc3cc(-n4cccc4)ccc3[nH]2)ncc1C (stereo not shown) [Compound 5]
- Volume (acidity, total acid output) ([2]; 10 mg/kg): 16.89 ± 4.06 μ Eq/hr
- Inhibition rate, acidity ([2]; 10 mg/kg): 70.60%
- Volume (acidity, total acid output) ([2]; 30 mg/kg): 5.59 ± 2.22 μ Eq/hr
- Inhibition rate, acidity ([2]; 30 mg/kg): 90.27%
- effect for lowering acidity ([2]; in words): good effects
- acidity lowering effect [2, 4]: high acidity lowering effect
- Volume of gastric juice ([3]; 10 mg/kg): 1.31 ± 0.23 ml/100 g BW
- Inhibition rate, gastric juice secretion ([3]; 10 mg/kg): 52.81%
- Volume of gastric juice ([3]; 30 mg/kg): 0.99 ± 0.16 ml/100 g BW
- Inhibition rate, gastric juice secretion ([3]; 30 mg/kg): 64.30%
- effect for inhibition of gastric acid secretion ([3]; in words): good effects
- inhibition of gastric juice secretion [3, 4]: strong inhibition of gastric juice secretion

- IC50 [1]: ~400 µM
Structure (SMILES): Cc1cnc(C[S+]([O-])c2nc3cc(-n4cccc4)ccc3[nH]2)cc1C (stereo not shown) [Compound 6]

- IC50 [1]: > 400 µM
Structure (SMILES): Cc1ccnc(C[S+]([O-])c2nc3cc(-n4cccc4)ccc3[nH]2)c1 (stereo not shown) [Compound 7]

- IC50 [1]: 91 µM
Structure (SMILES): COc1ccnc(C[S+]([O-])c2nc3cc(-n4cccc4)ccc3[nH]2)c1 (stereo not shown) [Compound 8]
- Volume (acidity, total acid output) ([2]; 10 mg/kg): 14.29 ± 2.81 μ Eq/hr
- Inhibition rate, acidity ([2]; 10 mg/kg): 60.81%
- Volume (acidity, total acid output) ([2]; 30 mg/kg): 2.92 ± 1.42 μ Eq/hr
- Inhibition rate, acidity ([2]; 30 mg/kg): 91.99%
- effect for lowering acidity ([2]; in words): good effects
- Volume of gastric juice ([3]; 10 mg/kg): 1.42 ± 0.24 ml/100 g BW
- Inhibition rate, gastric juice secretion ([3]; 10 mg/kg): 28.85%
- Volume of gastric juice ([3]; 30 mg/kg): 0.87 ± 0.15 ml/100 g BW
- Inhibition rate, gastric juice secretion ([3]; 30 mg/kg): 56.09%
- effect for inhibition of gastric acid secretion ([3]; in words): good effects

- IC50 [1]: 64 µM
Structure (SMILES): CCOc1ccnc(C[S+]([O-])c2nc3cc(-n4cccc4)ccc3[nH]2)c1C (stereo not shown) [Compound 9]
- Volume (acidity, total acid output) ([2]; 10 mg/kg): 11.84 ± 3.10 μ Eq/hr
- Inhibition rate, acidity ([2]; 10 mg/kg): 56.66%
- Volume (acidity, total acid output) ([2]; 30 mg/kg): 3.80 ± 1.54 μ Eq/hr
- Inhibition rate, acidity ([2]; 30 mg/kg): 86.09%
- effect for lowering acidity ([2]; in words): good effects
- Volume of gastric juice ([3]; 10 mg/kg): 1.50 ± 0.15 ml/100 g BW
- Inhibition rate, gastric juice secretion ([3]; 10 mg/kg): 36.04%
- Volume of gastric juice ([3]; 30 mg/kg): 1.14 ± 0.12 ml/100 g BW
- Inhibition rate, gastric juice secretion ([3]; 30 mg/kg): 51.46%
- effect for inhibition of gastric acid secretion ([3]; in words): good effects

- IC50 [1]: 8.8 µM
Structure (SMILES): CCc1cnc(C[S+]([O-])c2nc3cc(-n4cccc4)ccc3[nH]2)cc1OC (stereo not shown) [Compound 10]

- IC50 [1]: > 400 µM
Structure (SMILES): [O-][S+](Cc1ccccn1)c1nc2cc(-n3cccc3)ccc2[nH]1 (stereo not shown) [Compound 11]

- IC50 [1]: 85 µM
Structure (SMILES): Cc1cnc(C[S+]([O-])c2nc3cc(-n4cccc4)ccc3[nH]2)c(C)c1 (stereo not shown) [Compound 12]

- IC50 [1]: 38 µM
Structure (SMILES): COc1cc(C[S+]([O-])c2nc3cc(-n4cccc4)ccc3[nH]2)ncc1C (stereo not shown) [Compound 18]
- Volume (acidity, total acid output) ([2]; 3 mg/kg): 28.37 ± 3.44 μ Eq/hr
- Inhibition rate, acidity ([2]; 3 mg/kg): 53.39%
- Volume (acidity, total acid output) ([2]; 10 mg/kg): 23.40 ± 3.94 μ Eq/hr
- Inhibition rate, acidity ([2]; 10 mg/kg): 61.55%
- Volume (acidity, total acid output) ([2]; 30 mg/kg): 15.72 ± 3.60 μ Eq/hr
- Inhibition rate, acidity ([2]; 30 mg/kg): 74.18%
- Volume of gastric juice ([3]; 3 mg/kg): 2.24 ± 0.12 ml/100 g BW
- Inhibition rate, gastric juice secretion ([3]; 3 mg/kg): 27.35%
- Volume of gastric juice ([3]; 10 mg/kg): 2.14 ± 0.30 ml/100 g BW
- Inhibition rate, gastric juice secretion ([3]; 10 mg/kg): 30.90%
- Volume of gastric juice ([3]; 30 mg/kg): 1.53 ± 0.19 ml/100 g BW
- Inhibition rate, gastric juice secretion ([3]; 30 mg/kg): 50.42%
